Tested on: 460 barcoded cancer cell lines
Assay: PRISM pooled barcoded cancer cell line growth screen, 10-point dose-response, 5 days, AUC
Type: cell-based
Set-up: scale not given here
Description: Several small molecule inhibitors of distinct protein domains of EP300/CBP are available, though the majority target the histone acetyltransferase domain (HAT) or bromodomain (BRD)[5],[10],[21],[22]. […] We used these tools to investigate the relative contribution of the EP300/CBP BRD or HAT domain to tumor cell growth (Fig. 1a). To do so, we performed 10-point, dose-response growth assays using mixed pools of 460 barcoded cancer cell lines, over five days of treatment in vitro[33],[34]. Growth was measured using an area-under-the-curve (AUC) approach (Supplementary Table 1, Supplementary Fig. 1a). […] Given potential differences in compound penetration and solubility, and to compare the relative cell line and tumor-specific effects of these two compounds in assays performed non-simultaneously, we performed a median normalization of each dataset (Supplementary Table 2).

CO[C@H]1CC[C@H](n2c([C@@H]3CCCC(=O)N3c3ccc(F)c(F)c3)nc3cc(-c4c(C)noc4C)ccc32)CC1 [CCS1477]
AUC (MG63, Osteosarcoma): 1
AUC (MHHNB11, Neuroblastoma): 0.7003
AUC (MIAPACA2, Pancreatic Cancer): 0.9396
AUC (MKN1, Gastric Cancer): 0.9606
AUC (MKN7, Gastric Cancer): 0.7767
AUC (MKN45, Gastric Cancer): 0.856
AUC (MOLM13, AML): 0.3814
AUC (MOLM16, AML): 0.9868
AUC (MOLT3, T-acute leukemia): 0.9924
AUC (MOLT16, T-acute leukemia): 0.8465
AUC (MON, Rhabdoid): 0.6598
AUC (NB1, Neuroblastoma): 0.5737
AUC (NB4, AML): 1
AUC (NCIH23, Lung Cancer): 0.9771
AUC (NCIH28, Lung Cancer): 0.9928
AUC (NCIH82, Lung Cancer): 0.997
AUC (NCIH196, Lung Cancer): 0.842
AUC (NCIH211, Lung Cancer): 0.8687
AUC (NCIH226, Lung Cancer): 0.9874
AUC (NCIH292, Lung Cancer): 0.9319
AUC (NCIH322, Lung Cancer): 0.9929
AUC (NCIH358, Lung Cancer): 1
AUC (NCIH441, Lung Cancer): 0.7826
AUC (NCIH460, Lung Cancer): 0.9935
AUC (NCIH520, Lung Cancer): 0.9951
AUC (NCIH524, Lung Cancer): 1
AUC (NCIH596, Lung Cancer): 0.9011
AUC (NCIH647, Lung Cancer): 0.8544
AUC (NCIH650, Lung Cancer): 0.6419
AUC (NCIH661, Lung Cancer): 1
AUC (NCIH747, Colon/Colorectal Cancer): 0.9981
AUC (NCIH841, Lung Cancer): 0.9721
AUC (NCIH1048, Lung Cancer): 1
AUC (NCIH1299, Lung Cancer): 0.9947
AUC (NCIH1341, Lung Cancer): 0.9136
AUC (NCIH1373, Lung Cancer): 0.9741
AUC (NCIH1437, Lung Cancer): 0.9932
AUC (NCIH1568, Lung Cancer): 0.9412
AUC (NCIH1573, Lung Cancer): 1
AUC (NCIH1581, Lung Cancer): 0.9081
AUC (NCIH1648, Lung Cancer): 0.7802
AUC (NCIH1792, Lung Cancer): 0.8352
AUC (NCIH1793, Lung Cancer): 0.9609
AUC (NCIH1838, Lung Cancer): 0.9639
AUC (NCIH1930, Lung Cancer): 0.9338
AUC (NCIH1944, Lung Cancer): 0.9624
AUC (NCIH1975, Lung Cancer): 0.9927
AUC (NCIH2004RT, Rhabdoid): 1
AUC (NCIH2052, Lung Cancer): 0.9941
AUC (NCIH2122, Lung Cancer): 0.9334
AUC (NCIH2170, Lung Cancer): 0.8755
AUC (NCIH2172, Lung Cancer): 0.8463
AUC (NCIH2196, Lung Cancer): 0.8725
AUC (NCIH2228, Lung Cancer): 1
AUC (NCIH2347, Lung Cancer): 0.9989
AUC (NCIH2444, Lung Cancer): 1
AUC (NCO2, CML): 0.9122
AUC (NIHOVCAR3, Ovarian Cancer): 0.9967
AUC (NUDHL1, Lymphoma): 0.5218
AUC (NUGC3, Gastric Cancer): 0.905
AUC (OAW42, Ovarian Cancer): 0.9968
AUC (OC314, Ovarian Cancer): 0.7634
AUC (OC316, Ovarian Cancer): 0.664
AUC (OCIAML2, AML): 0.5324
AUC (OCIAML3, AML): 0.8075
AUC (OCILY19, Lymphoma): 0.7248
AUC (OCILY132, T-cell lymphoma): 0.9273
AUC (OCIM1, AML): 0.8977
AUC (OE19, Esophageal Cancer): 0.9508
AUC (OE21, Esophageal Cancer): 0.9943
AUC (ONCODG1, Ovarian Cancer): 0.9442
AUC (ONS76, Medulloblastoma): 0.6602
AUC (OSRC2, Kidney Cancer): 1
AUC (OV56, Ovarian Cancer): 1
AUC (OVCAR8, Ovarian Cancer): 0.8858
AUC (OVISE, Ovarian Cancer): 0.9803
AUC (OVK18, Ovarian Cancer): 0.5969
AUC (OVKATE, Ovarian Cancer): 0.8791
AUC (OVTOKO, Ovarian Cancer): 0.9328
AUC (PANC0203, Pancreatic Cancer): 0.9609
AUC (PANC0327, Pancreatic Cancer): 1
AUC (PANC0403, Pancreatic Cancer): 0.9938
AUC (PANC0504, Pancreatic Cancer): 0.8732
AUC (PANC0813, Pancreatic Cancer): 1
AUC (PATU8902, Pancreatic Cancer): 0.9744
AUC (PC3, Prostate Cancer): 1
AUC (PECAPJ15, Head and Neck Cancer): 0.9295
AUC (PF382, T-acute leukemia): 0.7571
AUC (PK1, Pancreatic Cancer): 0.9937
AUC (PK59, Pancreatic Cancer): 1
AUC (PSN1, Pancreatic Cancer): 0.7783
AUC (RCM1, Colon/Colorectal Cancer): 0.9586
AUC (RD, Rhabdomyosarcoma): 0.8954
AUC (RDES, Ewing Sarcoma): 0.5629
AUC (RERFLCAI, Lung Cancer): 0.937
AUC (RERFLCKJ, Lung Cancer): 0.8827
AUC (RH4, Rhabdomyosarcoma): 0.8163
AUC (RH28, Rhabdomyosarcoma): 0.8877
AUC (RH36, Rhabdomyosarcoma): 0.9558
AUC (RHJT, Rhabdomyosarcoma): 0.8764
AUC (RI1, B-cell Lymphoma): 0.7034
AUC (RL952, Endometrial/Uterine Cancer): 0.9936
AUC (RL, B-cell Lymphoma): 0.8905
AUC (RPMI8402, T-acute leukemia): 0.8153
AUC (RT4, Bladder Cancer): 0.9721
AUC (RVH421, Melanoma): 0.975
AUC (S117, Thyroid Sarcoma): 0.8697
AUC (SAOS2, Osteosarcoma): 0.6766
AUC (SCABER, Bladder Cancer): 0.9263
AUC (SCC9, Head and Neck Cancer): 0.7896
AUC (SCC25, Head and Neck Cancer): 0.9849
AUC (SCLC21H, Lung Cancer): 0.8733
AUC (SEM, B-cell Leukemia): 0.851
AUC (SF539, Glioma): 0.9912
AUC (SH4, Melanoma): 0.9252
AUC (SH10TC, Gastric Cancer): 0.7637
AUC (SHP77, Lung Cancer): 0.791
AUC (SIMA, Neuroblastoma): 0.8003
AUC (SJSA1, Osteosarcoma): 0.881
AUC (SKES1, Ewing Sarcoma): 0.7015
AUC (SKHEP1, Liver Cancer): 0.9726
AUC (SKM1, AML): 0.6213
AUC (SKMEL30, Melanoma): 0.7984
AUC (SKMES1, Lung Cancer): 0.9581
AUC (SKMM2, Myeloma): 0.9554
AUC (SKNAS, Neuroblastoma): 0.9789
AUC (SKNBE2, Neuroblastoma): 0.6208
AUC (SKNDZ, Neuroblastoma): 0.8143
AUC (SKNEP1, Ewing Sarcoma): 0.8025
AUC (SKNMC, Ewing Sarcoma): 0.8546
AUC (SKNO1, AML): 0.6432
AUC (SKNSH, Neuroblastoma): 0.8336
AUC (SKOV3, Ovarian Cancer): 0.9975
AUC (SKUT1, Leiomyosarcoma): 0.8326
AUC (SNU1, Gastric Cancer): 0.9131
AUC (SNU46, Head and Neck Cancer): 0.9224
AUC (SNU61, Colon/Colorectal Cancer): 0.9346
AUC (SNU81, Colon/Colorectal Cancer): 1
AUC (SNU182, Liver Cancer): 0.7735
AUC (SNU201, Glioblastoma): 0.712
AUC (SNU213, Pancreatic Cancer): 0.9853
AUC (SNU216, Gastric Cancer): 0.9769
AUC (SNU245, Bile Duct Cancer): 0.8366
AUC (SNU407, Colon/Colorectal Cancer): 0.9923
AUC (SNU423, Liver Cancer): 0.9162
AUC (SNU449, Liver Cancer): 0.9509
AUC (SNU466, Glioblastoma): 0.9993
AUC (SNU478, Bile Duct Cancer): 0.6392
AUC (SNU601, Gastric Cancer): 0.8941
AUC (SNU668, Gastric Cancer): 0.9591
AUC (SNU685, Endometrial/Uterine Cancer): 0.9601
AUC (SNU719, Gastric Cancer): 0.914
AUC (SNU869, Bile Duct Cancer): 0.9994
AUC (SNU878, Liver Cancer): 0.7965
AUC (SNU886, Liver Cancer): 1
AUC (SNU1041, Head and Neck Cancer): 0.8828
AUC (SNU1066, Head and Neck Cancer): 1
AUC (SNU1076, Head and Neck Cancer): 0.8929
AUC (SNU1077, Endometrial/Uterine Cancer): 0.9948
AUC (SNU1079, Bile Duct Cancer): 0.994
AUC (SNU1105, Glioblastoma): 0.9872
AUC (SNU1196, Bile Duct Cancer): 0.8873
AUC (SNU1214, Head and Neck Cancer): 0.7307
AUC (SNUC2A, Colon/Colorectal Cancer): 0.8028
AUC (SNUC4, Colon/Colorectal Cancer): 0.894
AUC (SQ1, Lung Cancer): 0.8902
AUC (SR786, Lymphoma): 0.7905
AUC (STM9101, Rhabdoid): 0.9061
AUC (SUDHL8, Lymphoma): 0.8983
AUC (SW48, Colon/Colorectal Cancer): 1
AUC (SW579, Thyroid Cancer): 0.9957
AUC (SW620, Colon/Colorectal Cancer): 1
AUC (SW780, Bladder Cancer): 0.8694
AUC (SW837, Colon/Colorectal Cancer): 0.8996
AUC (SW900, Lung Cancer): 0.9538
AUC (SW948, Colon/Colorectal Cancer): 0.8065
AUC (SW1088, Glioma): 0.9904
AUC (SW1116, Colon/Colorectal Cancer): 0.8985
AUC (SW1463, Colon/Colorectal Cancer): 0.8864
AUC (SW1710, Bladder Cancer): 1
AUC (T3M10, Lung Cancer): 0.9279
AUC (T24, Bladder Cancer): 0.9961
AUC (T47D, Breast Cancer): 0.8791
AUC (TALL1, T-acute leukemia): 0.9864
AUC (TC71, Ewing Sarcoma): 0.7599
AUC (TC106, Ewing Sarcoma): 1
AUC (TC205, Ewing Sarcoma): 0.7558
AUC (TCCPAN2, Pancreatic Cancer): 0.9414
AUC (TCCSUP, Bladder Cancer): 0.982
AUC (TE1, Esophageal Cancer): 1
AUC (TE4, Esophageal Cancer): 1
AUC (TE6, Esophageal Cancer): 0.9744
AUC (TE9, Esophageal Cancer): 0.9981
AUC (TE10, Esophageal Cancer): 0.7792
AUC (TE11, Esophageal Cancer): 0.9258
AUC (TE15, Esophageal Cancer): 0.8586
AUC (TE617T, Rhabdomyosarcoma): 0.9947
AUC (TF1, AML): 0.6668
AUC (TM87, Rhabdoid): 0.9581
AUC (TOLEDO, Lymphoma): 0.9697
AUC (TOV21G, Ovarian Cancer): 0.9924
AUC (TT2609C02, Thyroid Cancer): 0.8798
AUC (TT, Thyroid Cancer): 0.7695
AUC (TTC442, Rhabdomyosarcoma): 0.8425
AUC (TTC549, Rhabdoid): 0.9131
AUC (TTC642, Rhabdoid): 0.7844
AUC (TTC1240, Rhabdoid): 0.4497
AUC (TYKNU, Ovarian Cancer): 0.8502
AUC (U2OS, Osteosarcoma): 0.8623
AUC (U266B1, Myeloma): 0.9866
AUC (U937, AML): 0.7957
AUC (UACC62, Melanoma): 0.8964
AUC (UACC257, Melanoma): 0.9638
AUC (UBLC1, Bladder Cancer): 0.695
AUC (UMUC1, Bladder Cancer): 0.8319
AUC (UW228, Medulloblastoma): 0.9704
AUC (VMCUB1, Bladder Cancer): 0.7437
AUC (VMRCRCW, Kidney Cancer): 0.9159
AUC (VMRCRCZ, Kidney Cancer): 0.8277
AUC (WM88, Melanoma): 0.9177
AUC (WM793, Melanoma): 0.9978
AUC (WM983B, Melanoma): 0.8412
AUC (YAPC, Pancreatic Cancer): 1
AUC (YD10B, Head and Neck Cancer): 0.8679
AUC (YD15, Head and Neck Cancer): 0.7679
AUC (YD38, Head and Neck Cancer): 0.6898
AUC (YH13, Glioblastoma): 0.9673

Source: PMC11045757, “Group 3 medulloblastoma transcriptional networks collapse under domain specific EP300/CBP inhibition” (Nature Communications, 2024)
